Measurements taken from the NIST ThermoML archive (doi:10.1016/j.jct.2006.06.005).

Key:
[1] = xn = mol fraction of the nth substance listed; details: 101 kPa, Liquid
[2] = 101 kPa, Liquid

CN1CCCC1=O [N-methylpyrrolidone] + c1ccccc1
[1]
Details	mass density, 303.15 K [kg/m3]	mass density, 313.15 K [kg/m3]	mass density, 323.15 K [kg/m3]	mass density, 333.15 K [kg/m3]	mass density, 343.15 K [kg/m3]	viscosity, 303.15 K [mPa·s]	viscosity, 313.15 K [mPa·s]	viscosity, 323.15 K [mPa·s]	viscosity, 333.15 K [mPa·s]	viscosity, 343.15 K [mPa·s]
x2 = 0	1023.47	1014.55	1005.66	996.71	987.75	1.554	1.332	1.16	1.022	0.908
x2 = 0.1239	1008.67	999.64	990.6	981.51	972.41	1.357	1.163	1.015	0.895	0.797
x2 = 0.2409	993.24	984.1	974.95	965.76	956.53	1.222	1.049	0.915	0.807	0.712
x2 = 0.3523	978.06	968.78	959.51	950.17	940.78	1.102	0.952	0.834	0.735	0.656
x2 = 0.4584	962.87	953.43	943.96	934.42	924.85	0.991	0.858	0.753	0.665	0.593
x2 = 0.5594	947.6	937.99	928.33	918.6	908.82	0.899	0.779	0.684	0.604	0.539
x2 = 0.6557	931.99	922.17	912.31	902.36	892.35	0.809	0.703	0.62	0.548	0.491
x2 = 0.7476	916.33	906.29	896.21	886.02	875.8	0.729	0.636	0.56	0.498	0.447
x2 = 0.8354	900.43	890.16	879.84	869.42	858.93	0.655	0.573	0.505	0.451	0.405
x2 = 0.9195	884.33	873.83	863.26	852.58	841.81	0.585	0.519	0.458	0.41	0.369

c1ccccc1 [benzene]
[2]
Details	mass density [kg/m3]	viscosity [mPa·s]
303.15 K	868.21	0.561
313.15 K	857.46	0.493
323.15 K	846.65	0.436
333.15 K	835.72	0.388
343.15 K	824.87	0.345

c1ccccc1 [benzene] + CN1CCCC1=O
[1], x1 = 1
Details	mass density [kg/m3]	viscosity [mPa·s]
303.15 K	868.21	0.561
313.15 K	857.46	0.493
323.15 K	846.65	0.436
333.15 K	835.72	0.388
343.15 K	824.87	0.345

C1CCCCC1 [cyclohexane]
[2]
Details	mass density [kg/m3]	viscosity [mPa·s]
303.15 K	769.1	0.821
313.15 K	759.6	0.696
323.15 K	749.98	0.598
333.15 K	740.23	0.52

C1CCCCC1 [cyclohexane] + CN1CCCC1=O
[1], x1 = 1
Details	mass density [kg/m3]	viscosity [mPa·s]
303.15 K	769.1	0.821
313.15 K	759.6	0.696
323.15 K	749.98	0.598
333.15 K	740.23	0.52

Cc1ccccc1 [toluene]
[2]
Details	mass density [kg/m3]	viscosity [mPa·s]
303.15 K	858.32	0.525
313.15 K	848.92	0.47
323.15 K	839.45	0.423
333.15 K	829.93	0.385
343.15 K	820.3	0.35
353.15 K	810.54	0.323

Cc1ccccc1 [toluene] + CN1CCCC1=O
[1], x1 = 1
Details	mass density [kg/m3]	viscosity [mPa·s]
303.15 K	858.32	0.525
313.15 K	848.92	0.47
323.15 K	839.45	0.423
333.15 K	829.93	0.385
343.15 K	820.3	0.35
353.15 K	810.54	0.323
